Data: ChEMBL document CHEMBL1143163, “Structures of the ligand-binding core of iGluR2 in complex with the agonists (R)- and (S)-2-amino-3-(4-hydroxy-1,2,5-thiadiazol-3-yl)propionic acid explain their unusual equipotency” (J Med Chem, 2008)

Key:
Glutamate receptor 3 = Glutamate receptor 3 (Homo sapiens, UniProt P42263); experiment: Binding affinity at iGluR3o receptor expressed in sf9 cells by radioligand binding assay
Glutamate receptor 4 = Glutamate receptor 4 (Homo sapiens, UniProt P48058); experiment: Binding affinity at iGluR4o receptor expressed in sf9 cells by radioligand binding assay
Glutamate receptor 4, sequence (P48058 whole entry): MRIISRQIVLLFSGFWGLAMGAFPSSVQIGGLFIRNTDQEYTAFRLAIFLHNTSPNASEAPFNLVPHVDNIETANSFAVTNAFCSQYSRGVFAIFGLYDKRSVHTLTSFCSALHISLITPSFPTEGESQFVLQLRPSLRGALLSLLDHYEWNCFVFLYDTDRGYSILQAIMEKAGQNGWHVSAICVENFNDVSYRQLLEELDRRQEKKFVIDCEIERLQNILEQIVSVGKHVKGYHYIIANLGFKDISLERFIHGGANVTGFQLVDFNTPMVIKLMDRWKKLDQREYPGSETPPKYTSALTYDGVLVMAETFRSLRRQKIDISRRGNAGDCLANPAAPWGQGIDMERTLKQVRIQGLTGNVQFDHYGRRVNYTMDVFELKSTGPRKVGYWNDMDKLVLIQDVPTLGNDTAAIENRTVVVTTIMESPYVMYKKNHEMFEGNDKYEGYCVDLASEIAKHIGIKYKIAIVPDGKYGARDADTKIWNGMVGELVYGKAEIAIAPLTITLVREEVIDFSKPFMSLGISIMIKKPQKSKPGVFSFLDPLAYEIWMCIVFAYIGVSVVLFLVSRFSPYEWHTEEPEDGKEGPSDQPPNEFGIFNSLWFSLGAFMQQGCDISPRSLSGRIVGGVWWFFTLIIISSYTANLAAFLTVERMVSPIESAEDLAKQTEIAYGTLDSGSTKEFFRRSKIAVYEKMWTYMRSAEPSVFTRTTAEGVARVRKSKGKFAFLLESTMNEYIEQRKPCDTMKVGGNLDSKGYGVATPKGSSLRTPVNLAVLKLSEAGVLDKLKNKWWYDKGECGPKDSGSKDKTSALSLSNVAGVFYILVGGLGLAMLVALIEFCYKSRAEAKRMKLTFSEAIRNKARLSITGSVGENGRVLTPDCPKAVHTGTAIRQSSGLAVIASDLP

Glutamate receptor 2 [1] = target: T1, Glutamate receptor 2 (Homo sapiens, UniProt P42262); experiment: Binding affinity at iGluR2o(R) receptor expressed in sf9 cells by radioligand binding assay
T1 sequence (P42262 whole entry): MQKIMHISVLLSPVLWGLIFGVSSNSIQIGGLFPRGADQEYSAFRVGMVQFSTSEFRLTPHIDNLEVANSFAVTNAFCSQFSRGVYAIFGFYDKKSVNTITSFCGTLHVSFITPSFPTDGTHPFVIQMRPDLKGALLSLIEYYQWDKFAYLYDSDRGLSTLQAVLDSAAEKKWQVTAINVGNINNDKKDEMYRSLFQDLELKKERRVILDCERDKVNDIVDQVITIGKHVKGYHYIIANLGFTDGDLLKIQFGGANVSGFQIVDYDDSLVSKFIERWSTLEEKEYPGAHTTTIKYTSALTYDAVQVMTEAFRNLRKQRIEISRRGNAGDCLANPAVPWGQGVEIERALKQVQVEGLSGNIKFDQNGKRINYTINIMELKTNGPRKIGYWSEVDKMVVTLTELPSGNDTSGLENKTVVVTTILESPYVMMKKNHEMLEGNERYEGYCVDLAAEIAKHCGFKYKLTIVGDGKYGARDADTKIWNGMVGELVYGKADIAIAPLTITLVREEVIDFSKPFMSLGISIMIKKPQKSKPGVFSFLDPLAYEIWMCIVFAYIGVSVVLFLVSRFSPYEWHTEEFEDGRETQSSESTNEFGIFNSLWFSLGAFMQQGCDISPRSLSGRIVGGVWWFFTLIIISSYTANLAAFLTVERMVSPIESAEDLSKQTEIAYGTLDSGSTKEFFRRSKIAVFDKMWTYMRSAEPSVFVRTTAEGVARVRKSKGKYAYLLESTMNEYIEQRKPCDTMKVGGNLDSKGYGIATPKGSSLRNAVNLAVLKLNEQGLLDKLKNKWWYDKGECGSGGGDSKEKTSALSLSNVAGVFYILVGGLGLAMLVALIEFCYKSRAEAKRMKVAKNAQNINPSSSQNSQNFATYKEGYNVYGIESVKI

Glutamate receptor 1 = Glutamate receptor 1 (Homo sapiens, UniProt P42261); experiment: Binding affinity at iGluR1o receptor expressed in sf9 cells by radioligand binding assay
Glutamate receptor 1, sequence (P42261 whole entry): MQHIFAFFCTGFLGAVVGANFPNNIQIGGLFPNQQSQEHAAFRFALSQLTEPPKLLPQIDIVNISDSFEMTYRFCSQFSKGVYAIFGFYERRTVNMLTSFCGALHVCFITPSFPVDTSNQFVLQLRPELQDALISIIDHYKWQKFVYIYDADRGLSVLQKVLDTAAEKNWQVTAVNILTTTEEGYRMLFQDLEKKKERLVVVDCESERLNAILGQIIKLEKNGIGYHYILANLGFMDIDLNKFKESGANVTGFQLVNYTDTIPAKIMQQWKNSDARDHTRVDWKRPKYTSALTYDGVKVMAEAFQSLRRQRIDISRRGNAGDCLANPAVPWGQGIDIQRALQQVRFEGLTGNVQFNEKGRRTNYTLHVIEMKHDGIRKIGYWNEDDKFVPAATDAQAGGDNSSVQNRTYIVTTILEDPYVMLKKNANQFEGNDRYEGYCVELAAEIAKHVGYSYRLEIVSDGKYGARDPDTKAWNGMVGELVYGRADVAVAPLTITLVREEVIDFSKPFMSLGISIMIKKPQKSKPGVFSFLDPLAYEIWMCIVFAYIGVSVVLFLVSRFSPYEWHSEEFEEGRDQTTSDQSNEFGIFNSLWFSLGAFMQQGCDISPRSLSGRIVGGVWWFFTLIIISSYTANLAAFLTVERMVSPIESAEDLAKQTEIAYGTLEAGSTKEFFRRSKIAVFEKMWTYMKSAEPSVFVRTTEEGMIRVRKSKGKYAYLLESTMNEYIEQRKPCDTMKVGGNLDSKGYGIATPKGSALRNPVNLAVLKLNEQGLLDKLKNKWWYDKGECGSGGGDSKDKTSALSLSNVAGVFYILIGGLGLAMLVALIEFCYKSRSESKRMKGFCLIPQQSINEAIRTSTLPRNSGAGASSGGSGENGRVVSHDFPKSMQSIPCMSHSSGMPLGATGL

[2] = target: Glutamate receptor ionotropic, kainate 2 (Homo sapiens, UniProt Q13002); experiment: Binding affinity at iGluR6(V,C,R) receptor expressed in sf9 cells by radioligand binding assay
Glutamate receptor ionotropic, kainate 2, sequence (Q13002 whole entry, the tested form may be a part): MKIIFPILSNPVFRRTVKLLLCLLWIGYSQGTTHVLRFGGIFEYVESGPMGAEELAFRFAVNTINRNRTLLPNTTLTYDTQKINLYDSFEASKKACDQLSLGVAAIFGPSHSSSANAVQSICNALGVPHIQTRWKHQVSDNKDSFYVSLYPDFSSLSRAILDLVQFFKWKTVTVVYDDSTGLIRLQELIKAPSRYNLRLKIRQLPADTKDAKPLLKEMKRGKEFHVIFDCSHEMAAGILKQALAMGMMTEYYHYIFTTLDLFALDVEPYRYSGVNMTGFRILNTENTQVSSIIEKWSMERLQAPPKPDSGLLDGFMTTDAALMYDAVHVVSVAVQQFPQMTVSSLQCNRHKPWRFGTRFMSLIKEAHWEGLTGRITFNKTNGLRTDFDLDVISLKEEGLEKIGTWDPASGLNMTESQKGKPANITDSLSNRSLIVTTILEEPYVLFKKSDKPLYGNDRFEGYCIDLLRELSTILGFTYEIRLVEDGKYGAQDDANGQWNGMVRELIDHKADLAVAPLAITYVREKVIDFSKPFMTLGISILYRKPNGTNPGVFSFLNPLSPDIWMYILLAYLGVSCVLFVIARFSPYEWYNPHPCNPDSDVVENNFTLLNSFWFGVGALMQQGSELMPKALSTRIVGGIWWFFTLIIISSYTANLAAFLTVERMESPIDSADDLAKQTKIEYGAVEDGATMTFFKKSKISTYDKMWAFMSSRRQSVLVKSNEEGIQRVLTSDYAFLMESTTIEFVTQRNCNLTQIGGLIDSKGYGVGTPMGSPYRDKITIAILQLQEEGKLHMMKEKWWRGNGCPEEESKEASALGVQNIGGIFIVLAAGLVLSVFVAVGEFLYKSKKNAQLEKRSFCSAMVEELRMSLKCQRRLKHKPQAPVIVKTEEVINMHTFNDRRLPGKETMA

Glutamate receptor 2 [3] = target: T1, Glutamate receptor 2; experiment: Binding affinity at iGluR2 receptor S1S2J domain expressed in sf9 cells by radioligand binding assay

Glutamate receptor 3, sequence (P42263 whole entry): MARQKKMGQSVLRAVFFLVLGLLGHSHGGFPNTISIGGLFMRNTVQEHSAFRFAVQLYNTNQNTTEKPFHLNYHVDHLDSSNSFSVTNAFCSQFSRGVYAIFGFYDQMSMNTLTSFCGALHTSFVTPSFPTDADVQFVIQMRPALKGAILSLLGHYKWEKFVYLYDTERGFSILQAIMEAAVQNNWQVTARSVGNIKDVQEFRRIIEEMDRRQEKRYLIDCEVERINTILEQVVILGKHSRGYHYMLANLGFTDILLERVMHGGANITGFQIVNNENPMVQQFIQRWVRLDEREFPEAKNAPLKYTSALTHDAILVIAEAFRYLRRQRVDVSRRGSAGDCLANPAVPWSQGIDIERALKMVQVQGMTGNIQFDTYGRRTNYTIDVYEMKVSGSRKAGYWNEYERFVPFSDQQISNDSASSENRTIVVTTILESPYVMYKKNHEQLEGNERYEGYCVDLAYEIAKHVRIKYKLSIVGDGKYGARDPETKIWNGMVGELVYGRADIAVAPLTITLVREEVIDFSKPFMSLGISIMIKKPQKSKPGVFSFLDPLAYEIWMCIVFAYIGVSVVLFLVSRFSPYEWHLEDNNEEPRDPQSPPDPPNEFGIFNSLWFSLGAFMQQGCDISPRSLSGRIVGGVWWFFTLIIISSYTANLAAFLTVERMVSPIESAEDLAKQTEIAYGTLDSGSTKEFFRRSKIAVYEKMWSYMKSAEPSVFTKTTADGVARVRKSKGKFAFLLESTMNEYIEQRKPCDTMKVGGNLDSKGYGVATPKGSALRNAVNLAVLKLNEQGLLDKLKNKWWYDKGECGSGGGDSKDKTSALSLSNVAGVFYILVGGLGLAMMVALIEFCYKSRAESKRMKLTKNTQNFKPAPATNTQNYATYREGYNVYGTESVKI

| Structure (SMILES) | Ki (Glutamate receptor 3) | Ki (Glutamate receptor 4) | Ki (Glutamate receptor 2 [1]) | Ki (Glutamate receptor 1) | Ki [2] | Ki (Glutamate receptor 2 [3]) |
| --- | --- | --- | --- | --- | --- | --- |
| N[C@H](Cc1ns[nH]c1=O)C(=O)O | 1.07 µM | 1.05 µM | 0.234 µM | 0.15 µM | > 1000 µM | 0.531 µM |
| N[C@@H](Cc1nsnc1O)C(=O)O | 0.16 µM | 0.182 µM | 0.273 µM | 0.185 µM | > 100 µM | 0.323 µM |
